Assay results reported in PMC8233378, “Acyclic nucleoside phosphonates with adenine nucleobase inhibit Trypanosoma brucei adenine phosphoribosyltransferase in vitro” (Scientific Reports, 2021).
Structures can show the parent of a compound that is named as a salt. Where two headings read alike, the source gives them in different places.

Columns and labels:
[1] = test system: T. brucei BSF427; experiment: Alamar Blue assay, BSF427 cells; format: cell-based; conditions: Trypanosoma brucei, read-out: T. brucei BSF EC50
Method: The bloodstream form (BSF) T. b. brucei Lister 427 and single marker (SM) strains were cultivated in HMI-11 medium and 10% FBS at 37 °C in a humidified atmosphere at 5% CO2[26]. HMI-11 medium containing dialyzed 10% FBS and only one defined source of the purine base, adenine, was used for selected experiments (50 μM, HMI-11^adenine). The SM cell line constitutively expressing ectopic T7 RNA polymerase and tetracycline repressor was used for the tetracycline-inducible expression of dsRNA and V5-tagged proteins. To generate SKD APRT1 and DKD APRT1/2 RNAi cell lines, the 524 bp and 537 bp fragments of the aprt-I (Tb927.7.1780) and aprt-II (Tb927.7.1790) open reading frames, respectively, were PCR amplified from T. brucei BSF427 genomic DNA with the oligonucleotides (Supplementary File S1). The APRT1 fragment was cloned into the p2T7-TABlue, while the APRT2 fragment was cloned into, into the p2T7-177 plasmid. The p2T7-TABlue plasmid containing the APRT1 fragment was electroporated to SM cells which were subjected to selection with hygromycin (5 µg/ml). Verified SKD APRT1 cell line was then transfected with Not-1 linearized p2T7-177 plasmid containing the APRT2 fragment and the resulting DKD APRT1/2 cell line was selected with phleomycin (2.5 µg/ml). For the inducible expression of V5-tagged APRT1 andAPRT2, the coding sequences of the respective genes were PCR amplified using oligonucleotides listed in Supporting Information S1. The obtained PCR fragments were cloned into the pT7_N-term-V5 vector[6] using BglII or BamHI and XbaI restriction enzymes. Plasmids were then transfected to SM BSF cells. The resulting transfectants were established in medium containing puromycin (0.1 µg/ml). The induction of the dsRNA or tagged proteins was triggered by the addition of 1 µg/ml of tetracycline into the medium.
An Alamar Blue Assay was performed in a 96-well plate format to screen for sensitivity of T. brucei BSF cells to ANPs as previously published. The EC50 values were calculated using non-linear regression in GraphPad Prism 9.

[2] = Cytotoxicity of the prodrug in human cells (CellTiter-Glo 2.0), HeLa S3; format: cell-based; conditions: human, HeLa S3 cells; HeLa S3, 10 µM; read-out: Cytotoxicity of prodrug: HeLaS3 viability
Method: (§1) Compound cytotoxicity was evaluated in Hela S3 cancer cells and non-tumor human dermal fibroblasts (NHDF). All cell lines were obtained from ATCC (Manassas, VA, USA). The cytotoxicity was assayed using CellTiter-Glo® 2.0 detection reagent (Promega, Madison, USA) according to the manufacturer’s protocol.

[3] = test system: T. brucei BSF cells; experiment: Cell cycle analysis of treated trypanosomes (microscopy, flow cytometry with propidium iodide); format: cell-based, Trypanosoma brucei; conditions: for distribution of cell cycle stages by flow cytometry (DNA content): 1 to 16 µM, 12 h, propidium iodide
Source text: The inhibition of the growth of T. brucei BSF in HMI-11 medium in single micromolar EC50 values (Table 1) was somewhat surprising considering the dispensability of APRT enzymes for these cells. […] To get deeper insights into the in vivo action of ANPs on APRT enzyme we tested their cytotoxicity on wild type cells grown in HMI-11^adenine medium. In this medium, the cells rely on the activity of the APRT enzyme to produce AMP and other […]. […] To corroborate this observation, we also tested cells with induced ectopic expression of V5-tagged APRT1 in both types of media and in the presence of the selected ANPs. […] The changes in the distribution of different cell cycle stages within a population were further assessed by flow cytometry assaying the DNA content by staining the cells with propidium iodide (Fig. 8A).
BFS trypanosomes in log phase were resuspended in HMI-11 medium to a density of 2 × 10^5 cells ml^−1. Test compounds at concentrations ranging from 1 to 16 µM were added to the cell suspension followed by 12 h incubation at 37 °C. The cell cycle analysis was performed as described previously. Briefly, approximately 2 × 10^6 cells were washed with PBS and fixed in 1 ml of 70% methanol in 1 × PBS and stored at 4 °C overnight. Following a PBS wash, samples were incubated with 10 µg/ml propidium iodide and 9.6 µg/ml of RNaseA at 37 °C for 45 min. Samples were analyzed on a FACS Canto II (BD) collecting 10,000 gated events.

[4] = Cytotoxicity of the prodrug in human cells (CellTiter-Glo 2.0), NHDF; format: cell-based; conditions: human, normal human dermal fibroblasts (NHDF), NHDF
Method: as §1

[5] = molecular target: recombinant T. brucei APRT1 (Trypanosoma brucei brucei, UniProt Q57V32); experiment: Inhibition of recombinant APRT1, continuous spectrophotometric assay (adenine to AMP, 256 nm); format: biochemical; conditions: recombinant APRT1 280 nM, 1 mM PRib-PP, 60 μM adenine, pH 8.4, 25 °C
Source text: To test if the newly synthesized ANPs with an adenine as a nucleobase can inhibit the activity of the APRT1 and APRT2, both enzymes were overexpressed in E. coli. […] First, we monitored the APRT1 enzyme activity by a continuous spectrophotometric assay measuring the conversion of adenine to AMP at 256 nm.
The T. brucei aprt1 and aprt2 genes were PCR amplified using oligonucleotides listed in Supplementary File S1, digested with BglII or BamHI and XhoI enzymes and ligated into the pSKB3 expression vector. The pSKB3 vector carries a 6 × His-tag and an AcTEV cleavage site upstream of BamHI restriction site. A BglII or BamHI restriction site was introduced at the 5′ end of the respective genes instead of the initiation methionine codon to maintain the 6 × His-tag and AcTEV recognition motif in frame with the genes. The verified plasmids were transformed into the BL21(DE3) E. coli cells. The 6xhis-tagged recombinant APRT1 protein was purified under native conditions using the ÄKTA prime plus instrument. Elution fractions were analyzed by SDS-PAGE, and those containing APRT1 were pooled and dialyzed against 50 mM Tris–HCl, pH 8.0, 150 mM NaCl, 5 mM MgCl2, 10% glycerol. Bradford protein assay (BioRad) was used to determine protein concentrations. The APRT1 recombinant protein was sent for antibody production to Davids Biotechnology (Regensburg, Germany). Recombinant APRT1 was subsequently used in all in vitro assays.
The methodology was adapted from Ref.[6]. Briefly, the enzyme kinetics of APRT1 were measured by a continuous spectrophotometric assay measuring the conversion of adenine to AMP, at 256 nm. The concentration of enzyme in the assay was 140 nM, the concentration of PRib-PP was kept at 1 mM and the adenine concentration varied from 3.75 to 60 μM. The reaction was carried out using a 1.0 cm path length with a UV Visible spectrometer 1601 (Shimadzu) in the reaction buffer (0.1 M Tris, pH 8.4; 0.11 M MgCl2; at 25 °C). The initial velocity (V0 [µM/min]) was calculated using Beer–Lambert law for different concentration of the purine substrate molecules: A = Δε × L × c where A is the measured absorbance, Δε is constant 2100 M^−1 cm^−1 for adenine, c is a concentration of the product formed in one minute (V0) and L is the length of a cuvette. The Km, Vmax and kcat values were calculated using GraphPad Prism 9 according to Michaelis–Menten kinetics. The Ki values of the inhibitors for APRT1 were determined in the same reaction buffer containing 1 mM PRib-PP, 60 μM adenine and 280 nM APRT1. The concentrations of inhibitors in the assay ranged from 1 nM to 100 μM, depending on the activity of the compound. The reaction was preceded by 1 min incubation of the respective enzyme with the given inhibitor. The Ki values were calculated using non-linear regression in GraphPad Prism 9.

[6] = BSF427, HMI-11^adenine medium (50 μM adenine as sole purine)

recombinant T. brucei APRT1, sequence (Q57V32 entry or part of it): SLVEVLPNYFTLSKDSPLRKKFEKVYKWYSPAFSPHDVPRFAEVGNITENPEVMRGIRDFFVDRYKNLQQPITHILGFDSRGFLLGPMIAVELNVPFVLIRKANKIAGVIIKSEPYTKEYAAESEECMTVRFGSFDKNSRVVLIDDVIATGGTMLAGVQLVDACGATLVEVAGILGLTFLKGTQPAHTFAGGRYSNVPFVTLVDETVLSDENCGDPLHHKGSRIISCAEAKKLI

## CC(C)OC(=O)[C@H](Cc1ccccc1)NP(=O)(CSCCCn1cnc2c(N)ncnc21)N[C@@H](Cc1ccccc1)C(=O)OC(C)C [24a, 9-(5-(Bis((S-1-isopropoxycarbonyl-2-phenylethyl)amino)phosphoryl)-4-thiapentyl)adenine]
[1]; [6]
  EC50: 6.36 µM
[1]; BSF427, HMI-11 medium
  EC50: 6.16 µM
[2]
  viability at 10 µM: 99%
[3]
  direct microscopic observation of exposed T. brucei cells: problems in the cell cycle
  distribution of cell cycle stages by flow cytometry (DNA content): increase in the number of cells in G1-phase
[4]
  viability at 10 µM: 89%

## Nc1ncnc2c1ncn2CCC[S+]([O-])CP(=O)(O)O (centres unmarked) [4a, 5-(Adenin-9-yl)-2-oxo-2-thiapentanephosphonic acid, disodium salt]
[5]; read-out: APRT1 Ki
  Ki: > 30 µM

## CCOC(=O)[C@H](Cc1ccccc1)NP(=O)(CCOCC(Cn1cnc2c(N)ncnc21)OCCP(=O)(N[C@@H](Cc1ccccc1)C(=O)OCC)N[C@@H](Cc1ccccc1)C(=O)OCC)N[C@@H](Cc1ccccc1)C(=O)OCC (stereo partly drawn) [compound 26, Tetra-(L-phenylalanineethyl ester) prodrug of (2-[3-(adenin-9-yl)-2-(2-bis(hydroxyphosphoryl)ethoxy)propoxy]ethyl}phosphonic acid]
[1]; BSF427, HMI-11 medium
  EC50: 1.55 µM
[2]
  viability at 10 µM: 100%
[4]
  viability at 10 µM: 88%

## Nc1ncnc2c1ncn2CCCSCP(=O)(O)O [3a, 5-(Adenin-9-yl)-2-thiapentanephosphonic acid, disodium salt]
[5]; read-out: APRT1 Ki
  Ki: 10.1 ± 1.1 µM

## Nc1ncnc2c1ncn2CC(COCP(=O)(O)O)COCP(=O)(O)O [compound 22, {[(2-[(Adenin-9-yl)methyl]propane-1,3-diyl)bis(oxy)]bis(methylene)}diphosphonic acid]
[5]; read-out: APRT1 Ki
  Ki: 5.15 ± 0.69 µM

## Nc1ncnc2c1ncn2CCN(CCCC(=O)O)CCP(=O)(O)O [9f, 9-[(N-(Carboxypropyl)-N-(2-phosphonoethyl))-2-aminoethyl]adenine]
[5]; read-out: APRT1 Ki
  Ki: > 30 µM

## Nc1ncnc2c1ncn2CC(COCCP(=O)(O)O)OCCP(=O)(O)O (centres unmarked) [compound 20, 4-(Adenin-9-ylmethyl)-3,6-dioxaoctane-1,8-diphosphonic acid]
[5]; read-out: APRT1 Ki
  Ki: 27.7 ± 4.5 µM

## Nc1ncnc2c1ncn2CCOC(CO)CP(=O)(O)O (centres unmarked) [compound 21, 9-[2-(3-Hydroxy-1-phosphonopropan-2-yloxy)ethyl]adenine]
[5]; read-out: APRT1 Ki
  Ki: > 30 µM

## CC(C)OC(=O)[C@H](Cc1ccccc1)NP(=O)(CCSCCn1cnc2c(N)ncnc21)N[C@@H](Cc1ccccc1)C(=O)OC(C)C [24b, 9-(5-(Bis((S-1-isopropoxycarbonyl-2-phenylethyl)amino)phosphoryl)-3-thiapentyl)adenine]
[1]; [6]
  EC50: 6.16 µM
[1]; BSF427, HMI-11 medium
  EC50: 6.36 µM
[2]
  viability at 10 µM: 98%
[3]
  direct microscopic observation of exposed T. brucei cells: problems in the cell cycle
  distribution of cell cycle stages by flow cytometry (DNA content): increase in the number of cells in G1-phase
[4]
  viability at 10 µM: 89%

## N#CCCN(CCn1cnc2c(N)ncnc21)CCP(=O)(O)O [9b, 9-[(N-(2-Cyanoethyl)-N-(2-phosphonoethyl))-2-aminoethyl]adenine]
[5]; read-out: APRT1 Ki
  Ki: > 30 µM

## Nc1ncnc2c1ncn2CCN(CCP(=O)(O)O)CCP(=O)(O)O [9c, 9-[(N,N-(Bis-2-phosphonoethyl))-2-aminoethyl]adenine]
[5]; read-out: APRT1 Ki
  Ki: > 30 µM

## Nc1ncnc2c1ncn2CCSCCP(=O)(O)O [3b, 5-(Adenin-9-yl)-3-thiapentanephosphonic acid, disodium salt]
[5]; read-out: APRT1 Ki
  Ki: > 30 µM

## Nc1ncnc2c1ncn2CCN(CCOCCP(=O)(O)O)CCP(=O)(O)O [9g, 9-[(N-Phosphonoethyl-N-phosphonoethoxyethyl)-2-aminoethyl]adenine]
[5]; read-out: APRT1 Ki
  Ki: 3.07 ± 0.25 µM

## Nc1ncnc2c1ncn2CCN(CCN(CCP(=O)(O)O)CCP(=O)(O)O)CCP(=O)(O)O [compound 17, (2-((2-((2-(Adenine-9-yl)ethyl)(2-phosphonoethyl)amino)ethyl)(2-phosphonoethyl)amino)ethyl)phosphonic acid]
[5]; read-out: APRT1 Ki
  Ki: 21.3 ± 2.1 µM

## CCOC(=O)[C@H](Cc1ccccc1)NP(=O)(COCC(COCP(=O)(N[C@@H](Cc1ccccc1)C(=O)OCC)N[C@@H](Cc1ccccc1)C(=O)OCC)Cn1cnc2c(N)ncnc21)N[C@@H](Cc1ccccc1)C(=O)OCC [compound 25, Tetra-(L-phenylalanineethyl ester) prodrug of {[(2-[(adenin-9-yl)methyl]propane-1,3-diyl)bis(oxy)]bis(methylene)}diphosphonic acid]
[1]; BSF427, HMI-11 medium
  EC50: 3.7 µM
[2]
  viability at 10 µM: 99%
[4]
  viability at 10 µM: 90%

## Nc1ncnc2c1ncn2CCN(CCOCP(=O)(O)O)CCP(=O)(O)O [9d, 9-[(N-Phosphonoethyl-N-phosphonomethoxyethyl)-2-aminoethyl]adenine]
[5]; read-out: APRT1 Ki
  Ki: 3.88 ± 0.29 µM

## Nc1ncnc2c1ncn2CCN(CCNCCO)CCP(=O)(O)O [9a, 9-[(N-(2-((2-Hydroxyethyl)amino)ethyl)-N-(2-phosphonoethyl))-2-aminoethyl]adenine triethylammonium salt]
[5]; read-out: APRT1 Ki
  Ki: 4.92 ± 0.43 µM

## Nc1ncnc2c1ncn2CC[S+]([O-])CCP(=O)(O)O (centres unmarked) [4b, Sodium 5-(adenin-9-yl)-3-oxo-3-thiapentanephosphonate]
[5]; APRT1 Ki
  Ki: > 30 µM
